The series in a line: physchem. The series is classed as physicochemical. The essentials:
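Reversed-phase C18 HPLC (50×4.6 mm, 1.8 micron), 55 °C, 2.0 ml/min, acetonitrile/water with formic acid. Linear gradient 10% to 95% acetonitrile over 4.25 min, then 95% for 1.25 min. logP derived from retention per EEC Directive 79/831 Annex V.A8; MS detection.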
For `Cn1nc(OC(F)F)c(I)c1C(=O)Nc1ccc(Cl)c(C(=O)NCC(F)(F)F)c1` [Ik-241], the logP is recorded as 2.92^a). As to `Cn1nc(OCC(F)(F)F)c(Cl)c1C(=O)Nc1ccc(Cl)c(C(=O)NC2CC2)c1` [Ik-242], the logP was 2.89^a). Consider `Cn1nc(OCC(F)(F)F)c(Cl)c1C(=O)Nc1ccc(Cl)c(C(=O)NCC(F)(F)F)c1` [Ik-243], for which the logP is listed as 3.27^a).

As to `Cn1nc(OCC(F)(F)F)c(I)c1C(=O)Nc1ccc(Cl)c(C(=O)NCC(F)(F)F)c1` [Ik-244], the logP is given as 3.24^a). Consider `Cn1nc(OCC(F)(F)F)c(I)c1C(=O)Nc1ccc(Cl)c(C(=O)NC2CC2)c1` [Ik-245], for which the logP was 2.85^a). For the compound `Cn1nc(OCC(F)(F)F)cc1C(=O)Nc1ccc(Cl)c(C(=O)NCC(F)(F)F)c1` [Ik-246], the logP is given as 2.92^a). Take `Cn1nc(OCC(F)(F)F)cc1C(=O)Nc1ccc(Cl)c(C(=O)NC2CC2)c1` [Ik-247]: the logP is 2.55^a). Take `Cn1nc(-c2ccc(F)cc2)c(Br)c1C(=O)Nc1ccc(Cl)c(C(=O)NC2CC2)c1` [Ik-248]: the logP is listed as 3.04^a).

Consider `Cn1nc(-c2ccc(C(F)(F)F)cc2)c(Br)c1C(=O)Nc1ccc(Cl)c(C(=O)NC2CC2)c1` [Ik-249], for which the logP was 3.63^a).

Turning to `Cn1nc(-c2ccc(Cl)cc2Cl)c(Br)c1C(=O)Nc1ccc(Cl)c(C(=O)NC2CC2)c1` [Ik-250], the logP was 3.59^a). In the case of `Cn1nc(-c2ccc(OC(F)(F)F)cc2)c(Br)c1C(=O)Nc1ccc(Cl)c(C(=O)NC2CC2)c1` [Ik-251], the logP was 3.76^a). The figure for `Cn1nc(-c2ccccc2Cl)c(Br)c1C(=O)Nc1ccc(Cl)c(C(=O)NCC(F)(F)F)c1` [Ik-252] is 3.41^a); for `Cn1nc(-c2ccc(C(F)(F)F)cc2)c(Br)c1C(=O)Nc1ccc(Cl)c(C(=O)NCC(F)(F)F)c1` [Ik-253] it is 3.99^a).

For the compound `Cn1nc(-c2ccc(Cl)cc2Cl)c(Br)c1C(=O)Nc1ccc(Cl)c(C(=O)NCC(F)(F)F)c1` [Ik-254], the logP is 4.04^a). With `Cn1nc(-c2ccc(OC(F)(F)F)cc2)c(Br)c1C(=O)Nc1ccc(Cl)c(C(=O)NCC(F)(F)F)c1` [Ik-255], the logP is reported as 4.15^a). On to `Cn1nc(OCC(F)(F)F)c(Br)c1C(=O)Nc1ccc(Cl)c(C(=O)NC2CC2)c1` [Ik-256], for which the logP is 2.87^a). Turning to `Cn1nc(OCC(F)(F)F)c(Br)c1C(=O)Nc1ccc(Cl)c(C(=O)NCC(F)(F)F)c1` [Ik-257], the logP was 3.26^a). Consider `Cn1nc(-c2cc(C(F)(F)F)cc(C(F)(F)F)c2)c(C(F)(F)F)c1C(=O)Nc1ccc(Cl)c(C(=O)NCC(F)(F)F)c1` [Ik-258], for which the logP is on record as 4.46^a). Regarding `Cn1nc(-c2cc(C(F)(F)F)cc(C(F)(F)F)c2)c(C(F)(F)F)c1C(=O)Nc1ccc(Cl)c(C(=O)NC2CC2)c1` [Ik-259], the logP is 4.19^a). Turning to `Cn1nc(OCC(F)(F)F)c(F)c1C(=O)Nc1ccc(Cl)c(C(=O)NC2CC2)c1` [Ik-260], the logP was 2.75^a). The figure for `Cn1nc(C2CC2)c(C(F)(F)F)c1C(=O)Nc1ccc(Cl)c(C(=O)NC2CC2)c1` [Ik-261] is 2.78^a); for `C=CCc1c(C(F)(F)C(F)(F)F)nn(C)c1C(=O)Nc1ccc(Cl)c(C(=O)NC2CC2)c1` [Ik-262] it is 3.37^a); for `CCc1c(C(F)(F)C(F)(F)F)nn(C)c1C(=O)Nc1cccc(C(=O)NC2CC2)c1` [Ik-263] it is 3.05^a). The figure for `Cn1nc(C(F)(F)OC(F)(F)C(F)(F)OC(F)(F)F)c(I)c1C(=O)Nc1ccc(Cl)c(C(=O)NC2CC2)c1` [Ik-264] is 3.66^a). For `Cn1nc(C(F)(F)C(F)(F)C(F)(F)C(F)(F)F)c(I)c1C(=O)Nc1ccc(Cl)c(C(=O)NC2CC2)c1` [Ik-265], the logP is recorded as 3.90^a). Next, `Cn1nc(C(F)(F)C(F)(F)C(F)(F)C(F)(F)F)cc1C(=O)Nc1ccc(Cl)c(C(=O)NC2CC2)c1` [Ik-266]: 3.74^a); `CC(NC(=O)c1cc(NC(=O)c2c(I)c(C(F)(F)C(F)(F)C(F)(F)C(F)(F)F)nn2C)ccc1Cl)C1CC1` (stereo not drawn) [Ik-267]: 4.38^a).

Values taken from patent US8946234B2, “Halogen-substituted compounds” (Bayer CropScience AG, priority 2008, dated 2015).
